# Reference: article PMC12692861, “Biotin-Linked Ursolic Acid Conjugates as Selective Anticancer Agents and Target-Identification Tools for Cancer Therapy” (Molecules, 2025)
# Read-outs that look alike come from different tables or passages of the source.
# Experiments:
# 5637 cells [1] = assay: Annexin V-FITC/PI apoptosis flow cytometry; assay type: cell-based; conditions: Homo sapiens, 24 h, read-out: Q3-3 (Q3, viable) cells
# Description: (§1) The potential of cells treated with UA or 5c to undergo dose-dependent apoptosis was explored using quantitative flow cytometric analysis, as shown in Figure 4. Utilizing a kit that detects quantitative binding of Annexin V to externalized phosphatidyl serine during the apoptosis cascade and permeability of Propidium iodide (PI) in cells undergoing cell death, we determined the cells at various stages of cell death following 24h incubation with UA and 5c in various bladder cancer cells.
# (§2) We used a fluorescence-based Annexin V binding assay to determine the fraction of the cell population undergoing early and late apoptosis due to the cytotoxicity of the drugs. Cells plated in a 60 mm dish overnight at 0.3 × 10^6 cells/well were incubated with the selected drug at several doses for 24 h. Subsequently, treated cells were labeled with FITC-Annexin V using a kit (eBioscience™ Annexin V Apoptosis Detection Kits; Invitrogen # 88-8005-72, Thermo Fisher Scientific, Seoul, Korea) as per the manufacturer’s instructions. Intact cell suspension labeled with FITC-Annexin V and PI was run on the NovoCyte Quanteon flow cytometer, and data were acquired in list mode. Acquired data were analyzed using NovoExpress software (version 1.6.1). Cells treated with Staurosporine (0.2 µM) act as a positive control.
# MB49 cells = assay: Annexin V-FITC/PI apoptosis flow cytometry; assay type: cell-based, murine; conditions: Mus musculus, MB49, 24 h, read-out: Q4-3 (Q3, viable) cells
# Description: as §1, §2
# T24 cells = assay: MTT antiproliferative assay; assay type: cell-based, human; conditions: for IC50: Homo sapiens, T-24, MTT, 72 h, read-out: IC50 (Mean ± SD), T24; for SI (selectivity index), T24: IC50 MCF-12A / IC50 T24
# Description: (§3) The synthesized hybrid conjugates 5a–d were evaluated for their antiproliferative activity against the established human bladder cancer cell lines T24 and 5637. Test compounds were dissolved in ultrapure dimethyl sulfoxide (DMSO), diluted in cell culture media, added to cells cultured in 96-well cluster wells, and incubated for 72 h. The concentration of DMSO in culture media was maintained at < 0.05%. As previously reported, the fraction of viable cells in the culture wells was compared to that in cultures with 0.05% DMSO-only using a colorimetric assay, the Methyl Tetrazolium Bromide (MTT) reduction assay. We determined the selectivity index (SI) of the compounds 5a–d against tumor cells by comparing their cytotoxicity to that of a non-tumorigenic breast epithelial cell line, MCF-12A, as well as a non-tumorigenic, immortalized urothelial cell line, UROtsa (Table 1, and Figure 2).
# (§4) The antiproliferative activities of various compounds examined in this report were measured using the MTT (3-[4,5-dimethylthiazol-2-yl]-2,5-diphenyl-tetrazolium bromide) reduction assay, as previously described. Briefly, cells were seeded at 2 × 10^3 cells per well in a 96-well plate and cultured overnight. The cells were then treated with different doses (5 µM, 10 µM, 15 µM, 20 µM, 25 µM, 30 µM, 35 µM, 40 µM in DMSO) for 72 h. Viability of the treated cultures was estimated by conversion of MTT to the insoluble formazan after 3h incubation at 37 °C and 5% CO2. The purple-colored formazan crystals were dissolved in DMSO, and absorbance was recorded at wavelengths 570/640 nm using the Bio-Rad Benchmark Plus Microplate Reader. The percent of viable cells was calculated ODtreated cells/ODcontrol cell wells × 100.
# 5637 cells [2] = assay: MTT antiproliferative assay; assay type: cell-based, human; conditions: for IC50: 72 h, MTT, read-out: IC50 (Mean ± SD), 5637
# Description: as §3, §4
# MCF-12A = assay: MTT assay, non-tumorigenic breast epithelial cell line; assay type: cell-based, human; conditions: Homo sapiens, MCF-12A; MTT, 72 h, non-tumorigenic cells; read-out: IC50 (Mean ± SD), MCF-12A
# Description: as §3, §4
# [3] = system: human bladder cancer cell lines T24 and 5637; assay: MTT antiproliferative activity, result in words; assay type: cell-based; conditions: 72 h
# Description: as §3
# The antiproliferative activities of various compounds examined in this report were measured using the MTT (3-[4,5-dimethylthiazol-2-yl]-2,5-diphenyl-tetrazolium bromide) reduction assay, as previously described. […] The purple-colored formazan crystals were dissolved in DMSO, and absorbance was recorded at wavelengths 570/640 nm using the Bio-Rad Benchmark Plus Microplate Reader. The percent of viable cells was calculated ODtreated cells/ODcontrol cell wells × 100.
SMILES,viability at 0.2 µM (5637 cells [1]),viability at 0.2 µM (MB49 cells),IC50 (T24 cells),"SI (selectivity index), T24 (T24 cells)",IC50 (5637 cells [2]; Homo sapiens),"SI (selectivity index), 5637 (5637 cells [2]; IC50 MCF-12A / IC50 5637)",IC50 (MCF-12A),antiproliferative activity [3],IC50 (5637 cells [2])
"CN[C@@H]1C[C@H]2O[C@@](C)([C@@H]1OC)n1c3ccccc3c3c4c(c5c6ccccc6n2c5c31)C(=O)NC4 [Stauro., Staurosporine]",25.3%,12.3%,–,–,–,–,–,–,–
"CC1CCC2(C(=O)OCCOC(=O)CCCCC3SCC4NC(=O)NC43)CCC3(C)C(=CCC4C5(C)CCC(O)C(C)(C)C5CCC43C)C2C1C [Compound 5a, 2-((5-((3aS,4S,6aR)-2-Oxohexahydro-1H-thieno [3,4-d]imidazol-4-yl)pentanoyl)oxy) ethyl 3-hydroxy-urs-12-en-28-oate]",–,–,14.6 ± 4.97 µM,42.96,39.3 ± 21.2 µM,15.92,626 ± 34.7 µM,–,–
"CC1CCC2(C(=O)OCCCCCCOC(=O)CCCCC3SCC4NC(=O)NC43)CCC3(C)C(=CCC4C5(C)CCC(O)C(C)(C)C5CCC43C)C2C1C [Compound 5d, 6-((5-((3aS,4S,6aR)-2-Oxohexahydro-1H-thieno [3,4-d]imidazol-4-yl)pentanoyl)oxy) hexyl 3-hydroxy-urs-12-en-28-oate]",–,–,582 µM,6.57,> 10000 µM,–,3820 µM,largely inactive,–
"CC1CCC2(C(=O)OCCCOC(=O)CCCCC3SCC4NC(=O)NC43)CCC3(C)C(=CCC4C5(C)CCC(O)C(C)(C)C5CCC43C)C2C1C [Compound 5b, 3-((5-((3aS,4S,6aR)-2-Oxohexahydro-1H-thieno [3,4-d]imidazol-4-yl)pentanoyl)oxy) propyl 3-hydroxy-urs-12-en-28-oate]",–,–,108 ± 24.4 µM,0.68,≥ 10000 µM,–,73.33 ± 0.12 µM,ineffective,> 10000 µM
